PubChem BioAssay AID720643 (The Scripps Research Institute Molecular Screening Center, 2013)
Active and inactive are the calls of the source.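 How the source made its calls: active means EC50 of 10 µM or lower; inactive means EC50 above 10 µM.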

The compounds below were run against 5-hydroxytryptamine receptor 2A (Mus musculus) (UniProt P35363) (assay: mouse HTR2A agonist potency, beta-arrestin, late-stage follow-up, cell-based, luminescence, CHO-K1, powder samples, dose response (AID 720643)). Conditions: CHO-K1 mHTR2A beta-arrestin PathHunter luminescence.
5-hydroxytryptamine receptor 2A (Mus musculus), sequence (P35363 whole entry, looked up): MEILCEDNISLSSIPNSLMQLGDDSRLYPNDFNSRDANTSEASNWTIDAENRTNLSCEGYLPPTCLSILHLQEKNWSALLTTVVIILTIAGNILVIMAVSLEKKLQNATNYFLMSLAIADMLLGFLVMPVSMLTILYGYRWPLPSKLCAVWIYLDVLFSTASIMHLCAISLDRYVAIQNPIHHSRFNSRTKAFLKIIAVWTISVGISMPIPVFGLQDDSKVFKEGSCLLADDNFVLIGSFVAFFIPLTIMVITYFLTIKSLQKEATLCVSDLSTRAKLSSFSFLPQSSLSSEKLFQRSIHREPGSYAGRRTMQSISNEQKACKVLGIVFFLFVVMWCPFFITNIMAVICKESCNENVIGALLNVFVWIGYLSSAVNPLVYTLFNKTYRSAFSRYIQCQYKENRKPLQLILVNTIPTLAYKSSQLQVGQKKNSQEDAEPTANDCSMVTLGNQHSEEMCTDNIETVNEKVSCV

Q: With `Cc1ccc(CN2CCN(c3ncccn3)CC2)o1` as the compound, how does the EC50 read?
A: Its EC50 is > 76.1 µM (inactive).

Q: For `Cc1ccc(CN2CCN(c3ncccn3)CC2)c(C)c1`, which EC50 is on record?
A: Its EC50 is > 76.1 µM (inactive).

Q: How did the EC50 turn out when `CN(c1ccc(C(=O)N2CCN(Cc3ccccc3)CC2)cc1)S(=O)(=O)c1ccc(Cl)cc1` was run?
A: The EC50 was > 76.1 µM (inactive).

Q: `COc1cccc(OCC(O)CN2CCN(c3ccccn3)CC2)c1` (stereo not drawn) was tested. Which EC50 did it give?
A: Its EC50 is > 76.1 µM (inactive).

Q: `COc1ccccc1C(=O)NCCN1CCN(c2ccccc2)CC1` was tested. Which EC50 did it give?
A: Its EC50 is > 76.1 µM (inactive).

Q: How did the EC50 turn out when `c1ccc(COc2ccc(CN3CCN(c4ccccn4)CC3)cc2)cc1` was run?
A: Its EC50 is > 76.1 µM (inactive).

Q: Which EC50 does the source give for `Cc1cccc(CN2CCN(c3ccccn3)CC2)c1` here?
A: Its EC50 is > 76.1 µM (inactive).

Q: How did the EC50 turn out when `CCOc1cc(CN2CCN(C(=O)c3ccco3)CC2)ccc1OC` was run?
A: The EC50 was > 76.1 µM (inactive).

Q: How did the EC50 turn out when `COc1cc(CN2CCN(c3ncccn3)CC2)cc(OC)c1` was run?
A: The EC50 was > 76.1 µM (inactive).

Q: With `CCCN1CCC[C@H](c2cccc(O)c2)C1` as the compound, how does the EC50 read?
A: Its EC50 is > 76.1 µM (inactive).

Q: Which EC50 does the source give for `Oc1ccc(CN2CCN(c3ncccn3)CC2)cc1` here?
A: Its EC50 is > 76.1 µM (inactive).

Q: With `COc1ccc(CN2CCN(C(=O)c3ccco3)CC2)cc1OCc1ccccc1` as the compound, how does the EC50 read?
A: Its EC50 is > 76.1 µM (inactive).

Q: How did the EC50 turn out when `CCOc1ccc(NC(=O)CCN2CCN(c3ccccc3F)CC2)cc1` was run?
A: The EC50 was > 76.1 µM (inactive).

Q: How did the EC50 turn out when `COc1cc(Br)cc(CN2CCN(c3ncccn3)CC2)c1O` was run?
A: The EC50 was > 76.1 µM (inactive).

Q: With `CC(C)C[C@H]1C(=O)N2CCC[C@H]2[C@]2(O)O[C@](NC(=O)[C@@H]3C=C4c5cccc6[nH]c(Br)c(c56)CC4N(C)C3)(C(C)C)C(=O)N12` (stereo partly drawn) as the compound, how does the EC50 read?
A: The EC50 was > 76.1 µM (inactive).

Q: For `NC[C@@H]1O[C@H](C23CC4CC(CC(C4)C2)C3)Cc2c1ccc(O)c2O`, which EC50 is on record?
A: The EC50 was > 76.1 µM (inactive).

Q: Which EC50 does the source give for `COc1cccc(-n2cc(CNCc3cn(C)nc3-c3ccccc3F)cn2)c1` here?
A: Its EC50 is > 76.1 µM (inactive).

Q: For `COc1ccc(CN2CCN(c3ccccn3)CC2)c(OC)c1`, which EC50 is on record?
A: The EC50 was > 76.1 µM (inactive).

Q: For `CCc1ccc(CN2CCN(C(=O)c3ccco3)CC2)cc1`, which EC50 is on record?
A: The EC50 was > 76.1 µM (inactive).

Q: Which EC50 does the source give for `C=CCN1CCc2nc(N)sc2CC1` here?
A: The EC50 was > 76.1 µM (inactive).

Q: With `CC1CC(C)CN(CCOc2cccc(Cl)c2Cl)C1` (stereo not drawn) as the compound, how does the EC50 read?
A: The EC50 was > 76.1 µM (inactive).

Q: Which EC50 does the source give for `c1ccc(CN2CCN(c3ncccn3)CC2)cc1` here?
A: The EC50 was > 76.1 µM (inactive).

Q: Which EC50 does the source give for `CC(=O)N1CCc2cc(C(=O)CN3CCN(c4cccc(Cl)c4)CC3)ccc21` here?
A: Its EC50 is > 76.1 µM (inactive).

Q: For `CCOC(=O)N1CCN(Cc2ccc(OCC(O)CN3CCCCC3)cc2)CC1` (stereo not drawn), which EC50 is on record?
A: Its EC50 is > 76.1 µM (inactive).

Q: Which EC50 does the source give for `Clc1ccc(CN2CCN(c3ncccn3)CC2)cc1` here?
A: Its EC50 is > 76.1 µM (inactive).

Q: `Cc1ccc(CN2CCN(c3ccccn3)CC2)s1` was tested. Which EC50 did it give?
A: Its EC50 is > 76.1 µM (inactive).

Q: For `CC(COc1ccccc1)N1CCC(CO)(Cc2ccccc2)CC1` (stereo not drawn), which EC50 is on record?
A: Its EC50 is > 76.1 µM (inactive).

Q: How did the EC50 turn out when `Cc1ccsc1CN1CCN(c2ccccn2)CC1` was run?
A: Its EC50 is > 76.1 µM (inactive).

Q: For `O=C(CN1CCN(c2ccccn2)CC1)Nc1ccc(Oc2ccccc2)cc1`, which EC50 is on record?
A: Its EC50 is > 76.1 µM (inactive).

Q: For `CCn1c(=O)cc(SCC(=O)NCCCN2CCN(c3ccccc3F)CC2)c2ccccc21`, which EC50 is on record?
A: The EC50 was > 76.1 µM (inactive).

Q: `CCCN(CCC)C1CCc2cccc(O)c2C1` (stereo not drawn) was tested. Which EC50 did it give?
A: Its EC50 is > 76.1 µM (inactive).

Q: `CCOC(=O)C1CCN(Cc2cccc(Oc3ccc(Cl)cc3)c2)CC1` was tested. Which EC50 did it give?
A: The EC50 was > 76.1 µM (inactive).

Q: `Clc1ccccc1CN1CCN(c2ncccn2)CC1` was tested. Which EC50 did it give?
A: Its EC50 is > 76.1 µM (inactive).

Q: How did the EC50 turn out when `Fc1cccc(CN2CCN(c3ncccn3)CC2)c1` was run?
A: The EC50 was > 76.1 µM (inactive).

Q: Which EC50 does the source give for `Clc1ccc(CN2CCN(c3ncccn3)CC2)cc1Cl` here?
A: The EC50 was > 76.1 µM (inactive).

Q: Which EC50 does the source give for `OC(COc1ccc2cc(Br)ccc2c1)CN1CCN(c2ccccn2)CC1` (stereo not drawn) here?
A: The EC50 was > 76.1 µM (inactive).

Q: With `COc1ccc(CC2(CO)CCN(Cc3cc4ccccc4o3)CC2)cc1` as the compound, how does the EC50 read?
A: The EC50 was > 76.1 µM (inactive).

Q: For `Clc1ccccc1CN1CCN(c2ccccc2)CC1`, which EC50 is on record?
A: Its EC50 is > 76.1 µM (inactive).

Q: For `COc1ccc(CN2CCN(c3ncccn3)CC2)c(OC)c1`, which EC50 is on record?
A: The EC50 was > 76.1 µM (inactive).

Q: `Fc1ccccc1CN1CCN(c2ncccn2)CC1` was tested. Which EC50 did it give?
A: The EC50 was > 76.1 µM (inactive).

Q: For `NC1CCc2cc(O)c(O)cc2C1` (stereo not drawn), which EC50 is on record?
A: The EC50 was > 76.1 µM (inactive).

Q: Which EC50 does the source give for `Brc1cccc(CN2CCN(c3ncccn3)CC2)c1` here?
A: The EC50 was > 76.1 µM (inactive).

Q: With `Cc1cccc(CN2CCN(c3ncccn3)CC2)c1` as the compound, how does the EC50 read?
A: Its EC50 is > 76.1 µM (inactive).

Q: How did the EC50 turn out when `OCC1(Cc2cccc(C(F)(F)F)c2)CCN(Cc2cc3ccccc3o2)CC1` was run?
A: The EC50 was > 76.1 µM (inactive).

Q: Which EC50 does the source give for `COC(=O)C1=C(Cn2cnc3ccccc32)NC(=O)NC1c1cc(C)ccc1C` (stereo not drawn) here?
A: The EC50 was 3.47 µM.

Q: How did the EC50 turn out when `O=C(c1ccco1)N1CCN(Cc2ccc(Cl)cc2)CC1` was run?
A: The EC50 was > 76.1 µM (inactive).

Q: `CC(=O)N1CCC(N2CCN(c3ccccc3F)CC2)CC1` was tested. Which EC50 did it give?
A: The EC50 was > 76.1 µM (inactive).

Q: How did the EC50 turn out when `Cn1cc(C(F)(F)F)nc1-c1ccc(OCC(O)CNCCOc2ccc(O)c(C(N)=O)c2)cc1` (stereo not drawn) was run?
A: The EC50 was > 76.1 µM (inactive).

Q: Which EC50 does the source give for `COc1ccc(CN2CCN(c3ncccn3)CC2)c(C)c1C` here?
A: The EC50 was > 76.1 µM (inactive).

Q: How did the EC50 turn out when `c1ccc(N2CCN(Cc3ccsc3)CC2)nc1` was run?
A: The EC50 was > 76.1 µM (inactive).

Q: For `CC1(C)C(C=C(Cl)Cl)C1C(=O)N1CCN(Cc2ccccc2)CC1` (stereo not drawn), which EC50 is on record?
A: The EC50 was > 76.1 µM (inactive).

Q: For `Brc1ccc(CN2CCN(c3ccccn3)CC2)s1`, which EC50 is on record?
A: Its EC50 is > 76.1 µM (inactive).

Q: For `Fc1ccc(F)c(CN2CCN(c3ncccn3)CC2)c1`, which EC50 is on record?
A: Its EC50 is > 76.1 µM (inactive).
